Laboratory results from publication PMC11257039, “VCP activator reverses nuclear proteostasis defects and enhances TDP-43 aggregate clearance in multisystem proteinopathy models” (The Journal of Clinical Investigation, 2024).
“And” between values parts separate entries of the source, which are not always exact repeats. Equal values may be shown once.

What was measured:
R159H VCP = target: T1, R159H VCP (Mus musculus, UniProt Q01853, R159H); experiment: MESG-PNP ATPase assay, recombinant R159H VCP; assay type: biochemical
T1 construct: in the full-length recombinant VCP; His (N); made in house; host or cells: Escherichia coli BL21-CodonPlus (DE3)-RIL
T1 sequence (Q01853 whole entry R159H): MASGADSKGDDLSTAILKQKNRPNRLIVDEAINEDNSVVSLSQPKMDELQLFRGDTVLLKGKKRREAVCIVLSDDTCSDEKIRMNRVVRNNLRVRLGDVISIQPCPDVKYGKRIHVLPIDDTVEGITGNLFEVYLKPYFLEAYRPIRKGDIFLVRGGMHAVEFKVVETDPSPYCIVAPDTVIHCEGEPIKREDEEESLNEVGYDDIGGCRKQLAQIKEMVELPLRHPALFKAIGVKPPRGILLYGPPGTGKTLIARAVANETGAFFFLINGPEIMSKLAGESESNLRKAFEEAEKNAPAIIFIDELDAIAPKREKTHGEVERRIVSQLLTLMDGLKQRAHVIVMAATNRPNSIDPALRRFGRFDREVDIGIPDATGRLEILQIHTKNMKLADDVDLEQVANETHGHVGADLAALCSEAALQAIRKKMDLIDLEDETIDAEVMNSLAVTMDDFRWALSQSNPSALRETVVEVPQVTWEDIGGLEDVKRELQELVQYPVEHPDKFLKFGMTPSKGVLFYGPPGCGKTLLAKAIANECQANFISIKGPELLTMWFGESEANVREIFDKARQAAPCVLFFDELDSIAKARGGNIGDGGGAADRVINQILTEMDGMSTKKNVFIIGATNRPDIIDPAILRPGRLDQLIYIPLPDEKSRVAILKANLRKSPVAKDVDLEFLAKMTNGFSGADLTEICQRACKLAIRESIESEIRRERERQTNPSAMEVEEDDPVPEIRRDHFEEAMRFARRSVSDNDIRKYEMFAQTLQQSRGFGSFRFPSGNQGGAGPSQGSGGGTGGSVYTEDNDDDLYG
How it was run: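 Phosphate release (MESG-PNP, A360) from 50 nM recombinant mouse VCP mutant, with 25 μM compound versus 2% DMSO, at 1mM ATP. Read >15 min at 25°C, quantified against a phosphate standard curve; initial velocity from linear fit of the linear portion.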

[1] = test system: WT HeLa cells expressing TDP-4FL; experiment: Immunofluorescence of TDP-4FL inclusion morphology, WT HeLa; assay type: cell-based; conditions: MG132 17 h, then CHX with 5 μM UP109 4 h
Experimental: HeLa Cells were plated onto glass coverslips and transfected with TDP-4FL using Fugene HD for 24 hours. Cells were fixed with 4% paraformaldehyde (Electron Microscopy Sciences), permeabilized with 0.1% Triton-X (Thermo Fisher Scientific), and blocked with 2% FBS DPBS. Primary antibodies were diluted in 2% FBS DPBS. Cells were stained with 300 nM DAPI, and coverslips were mounted onto glass slides using ProLong Glass Antifade Mountant (Thermo Fisher Scientific). Confocal images were obtained using a Leica TCS SPE laser scanning confocal microscope.
(A) High power magnification immunofluorescence confocal images of HeLa cells expressing TDP-4FL stained for myc-TDP (green) Scale bar, 5 µm. […]
(C) Representative confocal microscopy immunofluorescence confocal images of HeLa cells […]
yellow represent cells that were categorized as anisosome morphology. Nuclei outline in white represent cells that were categorized as aggregate morphology. Cells with approximately more than 50% anisosome inclusions were categorized as anisosome morphology whereas cells with approximately more than 50% aggregate-like inclusions were categorized as aggregate morphology. Binucleate cells were excluded from the total counts. Scale bar, 10 µm.
(1 picture or pasted object on this page, not shown here)

## COCCNC(=O)NC(=O)COC(=O)c1cc([N+](=O)[O-])ccc1Sc1nc(C)cs1 [UP109]
R159H VCP; 25 μM compound, 1 mM ATP, 50 nM VCP
  ATPase activity of R159H VCP: increases ATPase activity
R159H VCP; VCP Mutation R159H, replicate values
  ATPase activity, nmol Pi / nmol VCP / s: 1.124 nmol Pi / nmol VCP / s and 1.212 nmol Pi / nmol VCP / s and 1.056 nmol Pi / nmol VCP / s
[1]
  TDP-4FL aggregate morphology: appeared to be smaller and in some cases revert to small anisosomes
